The nature of data set [1]: Solubility of FDCA in water. It counts as physicochemical.
Data set [2] in a line: HMF oxidoreductase assay: FDCA formation in cell extract of P. putida_pJT'hmfH. It counts as biochemical. The protocol: Cell extracts of wildtype C. basilensis HMF14 or P. putida S12 transformants expressing HMF oxidoreductase were prepared from 50-ml late exponential growth phase cultures using MM supplemented with either 12 mM succinate (C. basilensis HMF14, OD600≈1.5) or 20 mM glucose (P. putida S12, OD600≈4). The cultures were harvested by centrifugation and resuspended in 3 ml of assay buffer. Cells were disrupted by sonication, using either a Branson sonifier (micro tip at pulse mode, output set at 3 and percentage duty cycle set to 40%; 3 cycles of sonication: 45 s of pulsing and 15 s pause) or a Sonics Vibra-Cell (Sonics&Materials, USA) (5 mm tapered microtip; pulse mode set to 1 min (0.5 s pulse, 2 sec pause). After sonication, debris was removed by centrifuging at 8228×g for 3 min at 4° C. The supernatant was desalted using a PD10 gel filtration column (GE healthcare) and used as cell extract for HMF oxidoreductase assays. Protein concentration was measured using Bradford reagent (Sigma-Aldrich).
HMF oxidoreductase assays were performed in cell extracts of wildtype C. basilensis HMF14 or P. putida S12 transformants expressing the C. basilensis HMF14 HMF oxidoreductase. As a negative control, wildtype P. putida S12 or a C. basilensis HMF14 mutant was used that carried a transposon insertion in the hmfH gene. […]

Values after ≈ are worked out from the molar mass of the structure shown.

The values that follow come from patent US9481900B2, “Polypeptides having oxidoreductase activity and their uses” (Purac Biochem B.V., priority 2009, dated 2016).

As for `O=C(O)c1ccc(C(=O)O)o1` [FDCA, 2,5-Furan-dicarboxylic acid], the solubility (in general, the concentration that dissolves in the medium under given conditions) in data set [1] (aqueous buffer, pH 1.0) is about 1500 µg/mL (≈ 9.61 mM); in data set [1] (pH 0.5, aqueous buffer), about 400 µg/mL (≈ 2.56 mM).

B1: HmfH: 62 317 Da FAD-dependent GMC-family oxidoreductase of Cupriavidus basilensis HMF14, encoded by hmfH (protein, listed as Cupriavidus basilensis)
chain: MDTPRERFDYVIVGGGSAGCVLANRLSQDPAIRVALIEAGVDTPPDAVPAEILDSYPMPLFFGDRYIWPSLQARAVAGGRSKVYEQGRVMGGGSSINVQAANRGLPRDYDEWAASGASGWSWQDVLPYFRHLERDVDYGNSPLHGSHGPVPIRRILPQAWPPFCTEFAHAMGRSGLSALADQNAEFGDGWFPAAFSNLDDKRVSTAIAYLDADTRRRANLRIYAETTVRKLVVSGREARGVIAMRADGSRLALDAGEVIVSAGALQSPAILMRAGIGDAGALQALGIEVVADRPGVGRNLQDHPALTFCQFLAPQYRMPLSRRRASMTAARFSSGVPGGEASDMYLSSSTRAGWHALGNRLGLFFLWCNRPFSRGQVSLAGAQPDVPPMVELNLLDDERDLRRMVAGVRKLVQIVGASALHQHPGDFFPATFSPRVKALSRVSRGNVLLTELLGAVLDVSGPLRRSLIARFVTGGANLASLLTDESALEGFVRQSVFGVWHASGTCRMGAHADRSAVTDAAGRVHDVGRLRVIDASLMPRLPTANTNIPTIMLAEKIADTMQAERRAVRPASSEVAHPS
Take B1: in data set [2], the “substrate oxidation by the enzyme” value is “ability to oxidize HMF-acid to furan-dicarboxylic acid (FDCA)”.
